{"source": "patent US11413322B2", "about": "“Immunotherapy for angiogenic disease” (International Institute of Cancer Immunology, Inc., priority 2014, dated 2022)", "key": {"[1]": {"system": "laser-induced choroid coat angiogenesis", "assay": "Mouse model of laser-induced choroid coat angiogenesis, WT1 peptide vaccine (Example 1)", "assay_type": "in vivo, mouse (C57BL/6J)", "protocol": "Male C57BL/6J mice (provided by CLEA Japan, Inc.) were used. At the beginning of the experiment, the mice were 8 weeks old (body weight: about 20 to 25 g). The mice were free-fed with laboratory chow (manufactured by Oriental Yeast Co., Ltd.) and tap water. Six mice were used for each administration group.\nThe resultant was diluted to 0.227 or 2.27 mg/mL with sterilized PBS. The resultant WT1 solution and Montanide ISA51 VG were mixed so that the volume ratio was 1:1.27 to prepare emulsions of 0.1 μg/μL, 1 μg/μL, and 10 μg/μL. Each of the emulsions was intracutaneously administered at 10 μL/body. Administered doses were 1 μg/body, 10 μg/body, and 100 μg/body. Timing of administrations were on 15, 22, 29, and 36 days after photocoagulation.\nSpecifically, with respect to the mice of administration groups (groups 1 to 4) administered with the test substance (WT1 peptide), the administration was carried out through the following procedure.\n(1) Grouping was carried out on the basis of area of fluorescence leakage on 14 days after the photocoagulation.\n(3) Abdomen was shaved with hair clippers, and then intracutaneous administration was carried out using a 30 G injection needle.\n(3) Photocoagulation was carried out using Multi Color Laser Photocoagulator (red) (manufactured by NIDEK CO., LTD.) under the following coagulation conditions: spot size of 50 μm, output of 60 mW, and coagulation time of 0.1 second. […]\n(2) Dilatation of pupils was carried out with Mydrin-P, and then general anesthesia was performed by intramuscular administration at 1 mL/kg of a mixture of Ketalar injection (manufactured by DAIICHI SANKYO COMPANY, LIMITED) and Celactal injection (manufactured by Bayer) (7:1). (3) Fluorescite (Manufactured by Alcon, Inc.) was injected at 0.1 mL/kg via the tail vein, and then fluorescence ocular fundus angiography was carried out using Micron III. (4) An area of fluorescence leakage was calculated using an image analysis software. […]"}, "[2]": {"system": "choroidal neovascular area", "assay": "Mouse laser-induced choroidal neovascularization, WT1235m and WT1332 (Example 2)", "assay_type": "in vivo, mouse (CBF-1)", "conditions": "200 μg/body intracutaneous, 4 administrations, FIG. 5; for choroidal neovascular area compared to PBS administration group: time course 2 to 6 weeks", "experimental": "Two species of WT1 peptides: WT1235m ([…](SEQ ID NO: 19)) and WT1332 ([…](SEQ ID NO: 32)) were used as test substances, and following setting of administration groups were provided to conduct an experiment in the same method and procedure as Example 1. The WT1235m was a peptide in which methionine in position 2 of WT1235 (SEQ ID NO: 9) was replaced with tyrosine.\nFluorescence ocular fundus angiography was carried out at 2 weeks, 3 weeks, 4 weeks, 5 weeks, and 6 weeks after the photocoagulation to analyze time-dependent change of choroidal neovascular area. […] In WT1332 administration group, choroidal neovascular area at 6 weeks after the photocoagulation was reduced to about 70% of choroidal neovascular area at 2 weeks after the photocoagulation."}}, "note": "“Also recorded” adds a separate entry of the source. Ends that are not written are not given here.", "data": [{"sequence": "APVLDFAPPGASAYGSLG [WT135, WT1 peptide]", "values": [{"measurement": "choroidal neovascular area at 6 weeks after the photocoagulation relative to area at 2 weeks after the photocoagulation", "setting": "[1]; WT135 group, dose not specified (1, 10, 100 μg/body applied), intracutaneous, FIG. 4", "value": "about 50%"}, {"measurement": "choroidal neovascular area, change with administration (vs PBS administration group)", "setting": "[1]; any applied dose of 1, 10 and 100 μg/body intracutaneous, time course 2 to 6 weeks, FIG. 3, FIG. 4", "value": "Decrease in choroidal neovascular area; also recorded: decreasing trend"}]}, {"sequence": "CYTWNQMNL [WT1235m]", "values": [{"measurement": "choroidal neovascular area at 6 weeks after the photocoagulation compared with 2 weeks (in words)", "setting": "[2]; CBF-1 mice", "value": "the same as that at 2 weeks after the photocoagulation"}, {"measurement": "choroidal neovascular area compared to PBS administration group", "setting": "[2]", "value": "Decrease in choroidal neovascular area"}]}, {"sequence": "KRYFKLSHLQMHSRKH [WT1332, WT1 peptide]", "values": [{"measurement": "choroidal neovascular area at 6 weeks after the photocoagulation relative to area at 2 weeks after the photocoagulation", "setting": "[2]; CBF-1 mice", "value": "about 70%"}, {"measurement": "choroidal neovascular area compared to PBS administration group", "setting": "[2]", "value": "Decrease in choroidal neovascular area"}]}]}
